According to patent US20200157156A1, “GRATELOUPIA CHIANGII-DERIVED LECTIN AND LECTIN GENE CODING FOR THE SAME” (priority 2018, published 2020):
Counter-ions that a name gives are not always drawn.

Tests used:
GCL [1] = experiment: Hemagglutination inhibition test (carbohydrate specificity of GCL); format: cell-based, Grateloupia chiangii; conditions: 4 haemagglutination activity units of GCL, equine red blood cells
Experimental: The carbohydrate specificity was determined by means of a hemagglutination inhibition test. Proteins and carbohydrates used for the inhibition test included D-glucose (D-Glc), D-mannose (D-Man), D-galactose (D-Gal), N-acetyl-D-glucosamine (GlcNAc), N-acetyl-D-galactosamine (GalNAc), D-fucose (F-Fuc), fructose (Fru), lactose (Lac), and fetuin. A sample (25 μL) having 4 haemagglutination activity units was mixed with each of the carbohydrates (25 μL), and 25 μL of a mixture was removed from each well. An equivalent amount of a 4% suspension of equine red blood cells was added to, and mixed with the sample. The plate was kept at room temperature for 30 minutes, and then confirmed for inhibitory activities.

GCL [2] = experiment: Glycan microarray (glycan-300 array) binding to GCL; parameters: species or system Grateloupia chiangii; conditions: 50 μg/mL biotinylated lectin; for RFU (Normalized) GCL: Cy3-streptavidin detection
Experimental: A glycan microarray was performed by Ebiogen (Korea). A glycan array kit was purchased from RayBioTech (Norcross, Ga., USA). An array consisting of 300 synthetic glycans printed in quadruplicate on a glass slide was used. Label-based detection was performed according to the manufacturer's protocol. 50 μg/mL of biotinylated lectin was put into wells, and gently shaken for 3 hours or more. The glass slide was washed with 1× washing buffers I and II provided in the kit. The glycan-lectin binding was detected by reacting with Cy3 equivalent dye-conjugated streptavidin at room temperature for an hour. Signals for Cy3 detection were visualized using a microarray laser scanner (Genfix 4100A, Molecular Devices, Sunnyvale, Calif., USA) (excitation at 554 nm, and emission at 568 nm). Data extraction was performed using microarray assay software Genfix. The […] array data was analyzed using RayBioTech (RayBioTech) software.
To determine the carbohydrate specificity, a glycan microarray was carried out using a glycan-300 array kit in which 300 different carbohydrates were immobilized. Referring to FIGS. 6 and 7 and Table 2 below, 18 of the 300 tested carbohydrates produced at least 1,000 positive signals. GCL produced weak binding signals to the monosaccharides, that is, β-Glc-sp, β-Gal-sp, and α-Man-sp. Normalized signal intensities were 2,579, 2,269, and 2,194, respectively. Also, the GCL was able to bind to maltotetraose-β-Sp1 with a signal intensity of 2,705. […] It was that high-mannan structures, that is, Man-α-1,6-(Man-α-1,3-), Man-α-1,6-(GlcNAc-β-1,2-Man-α-1,3-)Man-β-1,4-GlcNAc-β-1, and 4-GlcNAc-Sp5, interacted with the GCL.

[3] = test system: herpes simplex virus 1 (HSV1) (F); experiment: Antiviral effect, CPE inhibition / MTT, HSV1; format: cell-based
Experimental: (§1) The antiviral effect was determined through cell viability, and the like using a virus-induced cytopathic effect (CPE) inhibition method and an MTT method.

[4] = test system: herpes simplex virus 2 (HSV2) (MS); experiment: Antiviral effect, CPE inhibition / MTT, HSV2; format: cell-based
Experimental: as §1

in vitro = experiment: in vitro
Experimental: as §1

fetuin = experiment: cell-based or functional assay
equine red blood cells = experiment: Hemagglutination assay, equine red blood cells; format: cell-based, horse
Experimental: (§2) For a hemagglutination assay, horse and sheep blood was purchased (Hanil Comed, Korea). The blood was washed with phosphate buffered saline (PBS, pH 7.3) until a red color of a supernatant disappeared. Each of red blood cells was prepared into a 4% suspension in PBS. The sample was serially diluted in a 96-well U-bottom plate, and a 4% suspension of red blood cells was then added to each well. The sample was kept at room temperature for 30 minutes, and then confirmed for agglutination activities.

ovine red blood cells = experiment: Hemagglutination assay, ovine red blood cells; format: cell-based, sheep; conditions: 4% suspension, room temperature, 30 minutes
Experimental: as §2

[5] = Thermal stability of GCL activity; format: physicochemical
Experimental: (§3) The thermal stability of GCL was measured at different temperatures (ranging from 20 to 90° C.). The GCL activities were not affected until the temperature reached 30° C. […] FIG. 5 is a graph for analyzing a change in degree of activity of CGL according to divalent cations added.

[6] = Effect of divalent cations on GCL activity; conditions: presence of divalent cations (Mg2+ and Ca2+)
Experimental: as §3

[7] = 4% suspension, room temperature, 30 minutes

Molecule: O=C[C@@H](O)[C@@H](O)[C@H](O)[C@H](O)CO [D-mannose]
- Concentration inhibiting haemagglutination activity of GCL (GCL [1]): 125 mM

Molecule: Maltoheptaose-β-Sp1 [G0083]
- Binding of GCL to glycan (GCL [2]): strongly bound
- RFU (Normalized) GCL (GCL [2]): 8,132 ± 1,810 RFU

Molecule: dextran sulfate 8000
- Antiviral activity (EC50) HSV1 (F) [3]: 15.54 µg/mL
- Antiviral activity (EC50) HSV2 (MS) [4]: 4.52 µg/mL

Molecule: Nc1nc2c(ncn2COCCO)c(=O)[nH]1 [Acyclovir]
- CC50 (in vitro): > 100 µg/mL
- Selective index HSV1 (F) [3]: >192
- EC50 ([3]; Human alphaherpesvirus 1, footnote: concentration, μM): 0.52 µM
- Selective index HSV2 (MS) [4]: >35
- EC50 ([4]; Human alphaherpesvirus 2, footnote: concentration, μM): 2.87 µM

Molecule: β-Gal-Sp [G0002]
- Normalized signal intensity (GCL [2]): 2,269
- RFU (Normalized) GCL (GCL [2]): 2,165 ± 237 RFU

Molecule: Man-α-1,6-(Man-α-1,3-)Man-α-1,6-[Gal-β-1,4-(Fuc-α-1,3-)GlcNAc-β-1,2-Man-α-1,3-]Man-β-1,4-GlcNAc-β-1,4-GlcNAc-Sp5 [N-014]
- RFU (Normalized) GCL (GCL [2]): 1129 ± 151 RFU

Molecule: Glc-α-1,4-Glc-β-Sp1 [G0076]
- RFU (Normalized) GCL (GCL [2]): 1,238 ± 28 RFU

Molecule: Grateloupia chiangii-derived lectin (GCL)
- inhibition of haemagglutination activity of GCL (4 haemagglutination activity units, equine red blood cells) (fetuin): 195 µg/mL

Molecule: pentosan polysulfate [Penosan polysulfate]
- Toxicity CC50 (in vitro): >100 µg/mL
- Antiviral activity (EC50) HSV1 (F) [3]: 4.77 µg/mL
- Antiviral activity (EC50) HSV2 (MS) [4]: 2.10 µg/mL

Molecule: α-Man-Sp [G0003]
- Normalized signal intensity (GCL [2]): 2,194
- RFU (Normalized) GCL (GCL [2]): 2,093 ± 294 RFU

Molecule: Maltotetraose-β-Sp1 [G0080]
- Normalized signal intensity (GCL [2]): 2,705
- RFU (Normalized) GCL (GCL [2]): 2,577 ± 351 RFU

Molecule: O=C(CO)[C@@H](O)[C@H](O)[C@H](O)CO [fructose]
- Concentration inhibiting haemagglutination activity of GCL (GCL [1]): 250 mM

Molecule: β-Glc-Sp [G0001]
- Normalized signal intensity (GCL [2]): 2,579
- RFU (Normalized) GCL (GCL [2]): 2,273 ± 544 RFU

Molecule: D-cellose-β-Sp1 [G0087]
- RFU (Normalized) GCL (GCL [2]): 1,165 ± 82 RFU

Molecule: β-GlcNAc-Sp [G0006]
- RFU (Normalized) GCL (GCL [2]): 1,104 ± 133 RFU

Molecule: Gal-β-1,4-Glc-β-Sp [G0016]
- RFU (Normalized) GCL (GCL [2]): 1,260 ± 126 RFU

Molecule: Gal-α-1,4-Gal-β-1,4-Glc-β-Sp [G0018]
- RFU (Normalized) GCL (GCL [2]): 1,124 ± 47 RFU

Molecule: Man-α-1,6-(Man-α-1,3-)Man-α-1,6-(GlcNAc-β-1,2-Man-α-1,3-)Man-β-1,4-GlcNAc-β-1,4-GlcNAc-Sp5 [N-010]
- RFU (Normalized) GCL (GCL [2]): 1142 ± 116 RFU

Molecule: CN[C@@H]1[C@@H](O)[C@@H](O[C@@H]2[C@@H](O)[C@H](O[C@H]3OC(CN)=CC[C@H]3N)[C@@H](N)C[C@H]2N)OC[C@]1(C)O [G0056, Sisomicin Sulfate]
- RFU (Normalized) GCL (GCL [2]): 1,583 ± 177 RFU

Molecule: Maltohexaose-β-Sp1 [G0082]
- Binding of GCL to glycan (GCL [2]): strongly bound
- RFU (Normalized) GCL (GCL [2]): 7,524 ± 1,976 RFU

Molecule: Gal-β-1,4-Glc-Sp [H0400]
- RFU (Normalized) GCL (GCL [2]): 1,044 ± 110 RFU

Molecule: Man-α-1,6-(Man-α-1,3-)Man-α-1,6-(Gal-β-1,4-GlcNAc-β-1,2-Man-α-1,3-)Man-β-1,4-GlcNAc-β-1,4-GlcNAc-Sp5 [N-011]
- RFU (Normalized) GCL (GCL [2]): 1148 ± 173 RFU

Molecule: Glc-α-1,2-Gal-α-Sp [G0048]
- RFU (Normalized) GCL (GCL [2]): 1,173 ± 110 RFU

B1: GCL: lectin protein purified from red alga Grateloupia chiangii by D-mannose affinity chromatography, SEQ ID NO: 1, about 25 kDa (protein)
chain: MVVSNRLVSGESLHRGQHIISSDQHFMLVHQYDGNVVLYDVAGSGSGKPLWSTNTYGSHTTVFKMQEDSNLVLYATGGKPIWASDTHGSGGRFLEMQNDGNLVVYTDVGKPKWASDTHQGIAPRSEISVNQVLRIREGLHSANKRNELILQNDGNLVLSKNGSTAWSSGTAGTGANVLVLQIDGNLVLYNDTKSVWASGSMNKGGRTAVMQDDGNFVLYAEGGKPVWATNT
modifications: GLC
- Agglutination of equine red blood cells (equine red blood cells; [7]): agglutinated
- Minimal concentration for agglutination of equine red blood cells (equine red blood cells; [7]): 0.8 µg/mL
- Specific activity (Titer/mg) (equine red blood cells; hemagglutination titer per mg protein): 51,200 Titer/mg
- Total activity (Titer) (equine red blood cells; hemagglutination titer, purification step from 30 g sample): 33,280 Titer
- Agglutination of ovine red blood cells (ovine red blood cells): did not agglutinate
- GCL activity according to temperature ([5]; at 40° C.): Half of the activities were lost
- Initial activities maintained ([5]; heated at 90° C. for 30 minutes): approximately 15%
- GCL activity according to temperature ([5]; until the temperature reached 30° C.): not affected
- Change in activity by divalent cations [6]: not highly affected
- Toxicity CC50 (in vitro): >5 µg/mL
- Antiviral activity (EC50) HSV1 (F) [3]: 0.18 µg/mL
- Antiviral activity (EC50) HSV2 (MS) [4]: 0.036 µg/mL

B2: fetuin (protein, UniProt P12763 19-359, looked up)
Alpha-2-HS-glycoprotein: IPLDPVAGYKEPACDDPDTEQAALAAVDYINKHLPRGYKHTLNQIDSVKVWPRRPTGEVYDIEIDTLETTCHVLDPTPLANCSVRQQTQHAVEGDCDIHVLKQDGQFSVLFTKCDSSPDSAEDVRKLCPDCPLLAPLNDSRVVHAVEVALATFNAESNGSYLQLVEISRAQFVPLPVSVSVEFAVAATDCIAKEVVDPTKCNLLAEKQYGFCKGSVIQKALGGEDVRVTCTLFQTQPVIPQPQPDGAEAEAPSAVPDAAGPTPSAAGPPVASVVVGPSVVAVPLPLHRAHYDLRHTFSGVASVESSSGEAFHVGKTPIVGQPSIPGGPVRLCPGRIRYFKI
- Concentration inhibiting haemagglutination activity of GCL (GCL [1]): 195 µg/mL
